Measured values as given in patent US9346809B2 (LEO PHARMA A/S, priority 2009, dated 2016).

Columns and labels:
Format in all cases: biochemical
[1] = target: T1, JAK1 (aa 850-1154, catalytic domain, GST-tag) (Homo sapiens, UniProt P23458); assay: JAK kinase assay (HTRF, phosphorylation of TK substrate-biotin), JAK1; details: HTRF assay, ATP at Km (7 μM); read-out: JAK1 kinase inhibitory activity (EC50)
T1 construct: JAK1 (aa 850-1154) and TYK2 (aa 871-1187) are expressed with an N-terminally fused GST-tag; GST (N); purchased Carna Biosciences, Inc; host or cells: baculovirus expression system
In short: (§1)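 Per reaction, 5 ng JAK1, 0.1 ng JAK2, 0.3 ng JAK3 or 0.8 ng TYK2 (baculovirus-expressed catalytic domains) acted on 1 μM TK substrate-biotin at Km ATP for 20-30 min, RT. Phosphorylation measured by HTRF.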

[2] = target: T2, JAK2 (catalytic domain, His-tag) (Homo sapiens, UniProt O60674); assay: JAK kinase assay (HTRF, phosphorylation of TK substrate-biotin), JAK2; details: HTRF assay, ATP at Km (4 μM); read-out: JAK2 kinase inhibitory activity (EC50)
T2 construct: All four purified enzymes contain only the catalytic domain; His (N); purchased Carna Biosciences, Inc; host or cells: baculovirus expression system
In short: as §1

[3] = target: T3, JAK3 (catalytic domain, His-tag) (Homo sapiens, UniProt P52333); assay: JAK kinase assay (HTRF, phosphorylation of TK substrate-biotin), JAK3; details: HTRF assay, ATP at Km (2 μM); read-out: JAK3 kinase inhibitory activity (EC50)
T3 construct: All four purified enzymes contain only the catalytic domain; His (N); purchased Carna Biosciences, Inc; host or cells: baculovirus expression system
In short: as §1

[4] = target: T4, TYK2 (aa 871-1187, catalytic domain, GST-tag) (Homo sapiens, UniProt P29597); assay: JAK kinase assay (HTRF, phosphorylation of TK substrate-biotin), TYK2; details: HTRF assay, ATP at Km (13 μM); read-out: TYK2 kinase inhibitory activity (EC50)
T4 construct: JAK1 (aa 850-1154) and TYK2 (aa 871-1187) are expressed with an N-terminally fused GST-tag; GST (N); purchased Carna Biosciences, Inc; host or cells: baculovirus expression system
T4 sequence (P29597 871-1187): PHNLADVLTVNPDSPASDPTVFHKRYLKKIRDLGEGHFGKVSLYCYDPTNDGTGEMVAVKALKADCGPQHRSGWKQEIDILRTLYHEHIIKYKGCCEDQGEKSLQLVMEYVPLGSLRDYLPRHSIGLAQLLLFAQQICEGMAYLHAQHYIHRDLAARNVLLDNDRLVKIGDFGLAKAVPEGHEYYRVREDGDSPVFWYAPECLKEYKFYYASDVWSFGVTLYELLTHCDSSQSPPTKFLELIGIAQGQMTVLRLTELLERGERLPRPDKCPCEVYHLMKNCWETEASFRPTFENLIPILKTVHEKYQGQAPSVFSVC
In short: as §1

T3 sequence (P52333 822-1111 limits assumed): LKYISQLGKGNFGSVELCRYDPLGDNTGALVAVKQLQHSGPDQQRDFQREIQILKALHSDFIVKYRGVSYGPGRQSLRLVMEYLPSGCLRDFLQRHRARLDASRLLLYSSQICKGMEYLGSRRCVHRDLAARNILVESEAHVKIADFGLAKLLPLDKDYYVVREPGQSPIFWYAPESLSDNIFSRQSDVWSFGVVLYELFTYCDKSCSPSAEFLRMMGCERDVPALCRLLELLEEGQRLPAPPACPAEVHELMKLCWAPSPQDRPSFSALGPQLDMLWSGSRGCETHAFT
T1 sequence (P23458 850-1154): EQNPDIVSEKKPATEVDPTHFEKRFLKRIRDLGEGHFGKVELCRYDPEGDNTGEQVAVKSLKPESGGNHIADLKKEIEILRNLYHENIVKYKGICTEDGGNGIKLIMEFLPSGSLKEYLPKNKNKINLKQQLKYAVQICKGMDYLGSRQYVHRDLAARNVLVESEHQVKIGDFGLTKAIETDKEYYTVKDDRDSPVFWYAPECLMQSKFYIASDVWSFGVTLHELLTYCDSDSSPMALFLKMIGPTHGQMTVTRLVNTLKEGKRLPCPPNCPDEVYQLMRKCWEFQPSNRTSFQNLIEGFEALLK
T2 sequence (O60674 849-1124 limits assumed): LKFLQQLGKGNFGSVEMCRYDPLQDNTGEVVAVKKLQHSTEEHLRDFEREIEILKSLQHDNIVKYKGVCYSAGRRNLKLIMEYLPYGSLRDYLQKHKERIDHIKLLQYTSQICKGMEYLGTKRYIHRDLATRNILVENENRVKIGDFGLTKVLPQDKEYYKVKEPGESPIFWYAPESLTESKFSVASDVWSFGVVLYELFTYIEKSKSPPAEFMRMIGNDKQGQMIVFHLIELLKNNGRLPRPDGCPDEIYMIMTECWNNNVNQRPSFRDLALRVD

Row | Structure (SMILES) | EC50 [1] | EC50 [2] | EC50 [3] | EC50 [4]
1 | S=C(COc1ccccc1)N1CCN(c2ncnc3[nH]ccc23)CC12CC2 [Example 448, 2-Phenoxy-1-[7-(7H-pyrrolo[2,3-d]pyrimidin-4-yl)-4,7-diaza-spiro[2.5]oct-4-yl]-ethanethione] | < 100 nM | < 100 nM | < 100 nM | 100 to 500 nM
2 | CC(C)(C)[S+]([O-])N1CCN(c2ncnc3[nH]ccc23)CC12CC2 (centres unmarked) [Example 449, 4-[4-(2-Methyl-propane-2-sulfinyl)-4,7-diaza-spiro[2.5]oct-7-yl]-7H-pyrrolo[2,3-d]pyrimidine] | > 500 nM | 100 to 500 nM | > 500 nM | > 500 nM
3 | NS(=O)(=O)c1ccc(OCCC(=O)N2CCN(c3ncnc4[nH]ccc34)CC23CC3)cc1 [Example 452, 4-{3-Oxo-3-[7-(7H-pyrrolo[2,3-d]pyrimidin-4-yl)-4,7-diaza-spiro[2.5]oct-4-yl]-propoxy}-benzenesulfonamide] | < 100 nM | < 100 nM | < 100 nM | > 500 nM
4 | NS(=O)(=O)c1ccc(NCCC(=O)N2CCN(c3ncnc4[nH]ccc34)CC23CC3)cc1 [Example 453, 4-{3-Oxo-3-[7-(7H-pyrrolo[2,3-d]pyrimidin-4-yl)-4,7-diaza-spiro[2.5]oct-4-yl]-propylamino}-benzenesulfonamide] | < 100 nM | < 100 nM | 100 to 500 nM | > 500 nM
5 | NS(=O)(=O)c1ccc(NCC(=O)N2CCN(c3ncnc4[nH]ccc34)CC23CC3)cc1 [Example 454, 4-{2-Oxo-2-[7-(7H-pyrrolo[2,3-d]pyrimidin-4-yl)-4,7-diaza-spiro[2.5]oct-4-yl]-ethylamino}-benzenesulfonamide] | < 100 nM | < 100 nM | 100 to 500 nM | 100 to 500 nM
6 | CN(CCC#N)S(=O)(=O)N1CCN(c2ncnc3[nH]ccc23)CC12CC2 [Example 458, 7-(7H-Pyrrolo[2,3-d]pyrimidin-4-yl)-4,7-diaza-spiro[2.5]octane-4-sulfonic acid (2-cyano-ethyl)-methyl-amide] | < 100 nM | < 100 nM | < 100 nM | < 100 nM
7 | CN(C1CCCCC1)S(=O)(=O)N1CCN(c2ncnc3[nH]ccc23)CC12CC2 [Example 460, 7-(7H-Pyrrolo[2,3-d]pyrimidin-4-yl)-4,7-diaza-spiro[2.5]octane-4-sulfonic acid cyclohexyl-methyl-amide] | < 100 nM | < 100 nM | 100 to 500 nM | 100 to 500 nM

Second part, the molecule after the results:

Row | EC50 [1] | EC50 [2] | EC50 [3] | EC50 [4] | Structure (SMILES)
8 | < 100 nM | < 100 nM | 100 to 500 nM | > 500 nM | CCCCNC(=O)N1CCN(c2ncnc3[nH]ccc23)CC12CC2 [Example 444, 7-(7H-Pyrrolo[2,3-d]pyrimidin-4-yl)-4,7-diaza-spiro[2.5]octane-4-carboxylic acid butylamide]
9 | < 100 nM | < 100 nM | 100 to 500 nM | > 500 nM | O=C(NCCc1ccccc1)N1CCN(c2ncnc3[nH]ccc23)CC12CC2 [Example 445, 7-(7H-Pyrrolo[2,3-d]pyrimidin-4-yl)-4,7-diaza-spiro[2.5]octane-4-carboxylic acid phenethyl-amide]
10 | < 100 nM | < 100 nM | 100 to 500 nM | > 500 nM | O=C(Oc1ccc(Cl)cc1)N1CCN(c2ncnc3[nH]ccc23)CC12CC2 [Example 446, 7-(7H-Pyrrolo[2,3-d]pyrimidin-4-yl)-4,7-diaza-spiro[2.5]octane-4-carboxylic acid 4-chloro-phenyl ester]
11 | < 100 nM | < 100 nM | 100 to 500 nM | 100 to 500 nM | COCC(=S)N1CCN(c2ncnc3[nH]ccc23)CC12CC2 [Example 447, 2-Methoxy-1-[7-(7H-pyrrolo[2,3-d]pyrimidin-4-yl)-4,7-diaza-spiro[2.5]oct-4-yl]-ethanethione]
12 | < 100 nM | < 100 nM | < 100 nM | < 100 nM | O=C(OC1CCCC1)N1CCN(c2ncnc3[nH]ccc23)CC12CC2 [Example 450, 7-(7H-Pyrrolo[2,3-d]pyrimidin-4-yl)-4,7-diaza-spiro[2.5]octane-4-carboxylic acid cyclopentyl ester]
13 | < 100 nM | < 100 nM | 100 to 500 nM | > 500 nM | O=C(CNc1ccccc1)N1CCN(c2ncnc3[nH]ccc23)CC12CC2 [Example 451, 2-Phenylamino-1-[7-(7H-pyrrolo[2,3-d]pyrimidin-4-yl)-4,7-diaza-spiro[2.5]oct-4-yl]-ethanone]
14 | < 100 nM | < 100 nM | < 100 nM | 100 to 500 nM | CSCCC(=O)N1CCN(c2ncnc3[nH]ccc23)CC12CC2 [Example 455, 3-Methylsulfanyl-1-[7-(7H-pyrrolo[2,3-d]pyrimidin-4-yl)-4,7-diaza-spiro[2.5]oct-4-yl]-propan-1-one]
15 | 100 to 500 nM | 100 to 500 nM | 100 to 500 nM | > 500 nM | COCCC(=O)N1CCN(c2ncnc3[nH]ccc23)CC12CC2 [Example 456, 3-Methoxy-1-[7-(7H-pyrrolo[2,3-d]pyrimidin-4-yl)-4,7-diaza-spiro[2.5]oct-4-yl]-propan-1-one]
16 | > 500 nM | > 500 nM | > 500 nM | > 500 nM | CN(C)CCC(=O)N1CCN(c2ncnc3[nH]ccc23)CC12CC2 [Example 457, 3-Dimethylamino-1-[7-(7H-pyrrolo[2,3-d]pyrimidin-4-yl)-4,7-diaza-spiro[2.5]oct-4-yl]-propan-1-one]
17 | < 100 nM | < 100 nM | 100 to 500 nM | 100 to 500 nM | CCN(CC)S(=O)(=O)N1CCN(c2ncnc3[nH]ccc23)CC12CC2 [Example 459, 7-(7H-Pyrrolo[2,3-d]pyrimidin-4-yl)-4,7-diaza-spiro[2.5]octane-4-sulfonic acid diethylamide]
